The structures appear in SMILES notation.

The values below come from patent US20250009852A1, “DEPLETING EGFR AND HER2 OVERCOMES RESISTANCE TO EGFR INHIBITORS IN COLORECTAL CANCER” (Health Research, Inc., priority 2021, published 2025).

The test system of one series is HB-EGF. Briefly: Measurement of soluble HB-EGF in tumor tissues by ELISA. The series is classed as in vivo, mouse. Conditions: HCT116 and HT29 tumors; aderbasib 60 mg/kg. How it is done:
Concentrations of AREG and HB-EGF in tumor tissues were measured using the Human Amphiregulin/AREG ELISA Kit PicoKine and HB-EGF ELISA Kit, following the manufacturer's instruction. Briefly, 100 μl of standard or tumor tissue homogenate (cleared by centrifugation) was added to a microtiter well pre-coated with anti-human AREG or anti-human HB-EGF and incubated for 2 h at RT. After washing the plate with washing buffer, 100 μl of biotinylated anti-human AREG or biotinylated anti-human HB-EGF were added to each well and incubated for 1.5 h at RT. The microtiter wells were washed 3 times with wash buffer and incubated with 100 μl/well of avidin-biotin-peroxidase complex for 40 min at RT. The microtiter wells were washed 5 times with wash buffer and incubated with 90 µl/well color developing reagent for 30 min at RT. After adding 100 μl of stop solution to each well, absorbance at 450 nm was recorded by a Synergy 2 Multi-Mode Microplate Reader.

The nature of series [1]: Monitoring of mice for signs of adverse effects. It counts as in vivo. Conditions: mice bearing HCT116 or HT29 tumors; aderbasib alone or the combination regimen. How it is done:
SCID mice (C.B.17 SCID) were bred by the Laboratory Animal Shared Resource at Roswell Park Comprehensive Cancer Center. Male mice at 7-8 weeks of age were used. All mouse experiments were approved by the Institutional Animal Care and Use Committee at Roswell Park Comprehensive Cancer Center under protocol 1022M. We established subcutaneous tumors by inoculating 1×10^6 HCT116 cells, 4×10^6 HT29 cells, or 2×10^6 SW48 cells to the flank of each mouse in 100 μl of serum free medium. Colon patient-derived xenograft (PDX) 14650 was established from a liver metastatic lesion in a patient treated at Roswell Park Comprehensive Cancer Center. Tumor fragments (˜20 mm^3) from donor mice were implanted into the flank of each mouse subcutaneously using a trocar. […] Subcutaneous tumor volume was measured using length ×width^2÷2. Tumor volume was measured three times each week. Orthotopic tumor growth was monitored by bioluminescence weekly. Mice were given D-luciferin (150 mg/kg) by ip and anesthetized with isoflurane, and tumor burden was measured by bioluminescence using the IVIS Spectrum In Vivo Imaging System (PerkinElmer). Drug treatment was started when significant tumor growth was detected. […] The mice were closely monitored for sign of adverse effects and weighed three times each week. […]

For `COC(=O)N1CC2(CC2)C[C@H](C(=O)NO)[C@H]1C(=O)N1CC=C(c2ccccc2)CC1` [aderbasib], the “soluble HB-EGF level in the tumor tissues” value with HB-EGF is “marked decrease”. Further, the signs of toxicity entry in series [1] is “did not show signs of toxicity”.
